# Measurements reported in US20080269213A1, “8-Hydroxyquinoline compounds and methods thereof” (Wyeth, priority 2006, published 2008).
# Where “and” joins values, the source holds several entries; their conditions need not be identical. Equal values may be shown once.
# Molecular target: T1, recombinant human Aggrecanase-2 Agg2-Phe628 (Homo sapiens, UniProt Q9UNA0)
# T1 sequence (Q9UNA0 262-628 limits assumed): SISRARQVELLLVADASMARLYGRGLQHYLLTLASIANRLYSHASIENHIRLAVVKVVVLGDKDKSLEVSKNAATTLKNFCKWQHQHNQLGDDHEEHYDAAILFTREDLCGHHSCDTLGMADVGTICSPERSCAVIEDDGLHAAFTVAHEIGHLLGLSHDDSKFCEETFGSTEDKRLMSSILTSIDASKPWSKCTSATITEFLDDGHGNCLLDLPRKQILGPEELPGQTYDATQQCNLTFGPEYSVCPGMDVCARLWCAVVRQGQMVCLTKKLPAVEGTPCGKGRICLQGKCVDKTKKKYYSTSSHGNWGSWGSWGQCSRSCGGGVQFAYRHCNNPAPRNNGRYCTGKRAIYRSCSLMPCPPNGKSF
# Test: Aggrecanase 2 in vitro enzyme assay (Agg-2 FRET, quenched fluorescent peptide substrate)
# Assay type: biochemical
# Parameters: purified recombinant human Aggrecanase-2 Agg2-Phe628 (MW=41,737); This is a truncated form of full-length human aggrecanase-2; made in house; host or cells: CHO cells
# Settings: @ 2500 nM
# Procedure: A continuous assay was used in which the substrate was a synthetic peptide containing a fluorescent group (o-aminobenzyl, Abz), which was quenched by energy transfer to a 2,4-dinitrophenyl group (Dnp). The buffer used in this assay was 50 mM HEPES, pH 7.5, 100 mM NaCl, 5 mM CaCl2, 0.1% CHAPS, 5% glycerol. The source of enzyme was purified recombinant human Aggrecanase-2 Agg2-Phe628 (MW=41,737). This is a truncated form of full-length human aggrecanase-2 that was expressed in CHO cells and purified. The final concentration of Agg2-Phe628 was 0.5 μg/ml. […] It is a synthetic peptide that is designed after a portion of brevican, one of the naturally occurring substrates of Aggrecanase-2, of the sequence Abz-[…]-Dap(Dnp)-KK—NH2 (mass=1740). The concentration of this substrate stock was spectrophotometrically determined using the extinction coefficient at 354 nm of 18,172 M^−1cm^−1. […] The final concentration of substrate in the assay was 25 μM.
# Test compounds (in duplicate) were serially diluted from 2 mM to 0.01 μM in 100% DMSO. The total reaction volume was 100 μl. The buffer and enzyme were added first followed by addition of 10× inhibitor from the dilution plate. Enzyme and buffer alone samples were included in order to obtain the maximal rate of substrate cleavage. […] Then substrate was added, mixed and the reaction monitored for 40 min at 30° C. in kinetic mode using λex: 340 nm and % λem: 420 (GeminiXS Molecular Devices).
row,Molecule,inhibition at […]
1,O=C(COc1ccccc1)NC(c1ccccc1O)c1cc(Cl)c2cccnc2c1O (stereo not drawn) [N-[(5-chloro-8-hydroxyquinolin-7-yl)(2-hydroxyphenyl)methyl]-2-phenoxyacetamide],62%

# Same assay, conditions: concentration not given
row,Molecule,Agg-2 FRET Median PCT INHIB
1,"CC(C)(C)c1ccc(NCC(=O)NC(c2ccccc2Cl)c2cc(Cl)c3cccnc3c2O)cc1 (stereo not drawn) [Example 20, N^2-(4-tert-butylphenyl)-N^1-[(5-chloro-8-hydroxyquinolin-7-yl)(2-chlorophenyl)methyl]glycinamide]",54%
2,O=C(CCCc1ccccc1)NC(c1ccccc1Cl)c1cc(Cl)c2cccnc2c1O (stereo not drawn) [N-[(5-chloro-8-hydroxyquinolin-7-yl)(2-chlorophenyl)methyl]-4-phenylbutanamide],48%
3,"Cc1ccc(C(NC(=O)CNc2ccc(C(C)(C)C)cc2)c2cc(Cl)c3cccnc3c2O)cc1 (stereo not drawn) [Example 27, N^2-(4-tert-butylphenyl)-N^1-[(5-chloro-8-hydroxyquinolin-7-yl)(4-methylphenyl)methyl]glycinamide]",57%
4,COc1c(C(NC(=O)COc2ccccc2)c2ccccc2)cc(Cl)c2cccnc12 (stereo not drawn) [N-[(5-chloro-8-methoxyquinolin-7-yl)(phenyl)methyl]-2-phenoxyacetamide],50%
5,Cc1ccccc1C(NC(=O)CCCc1ccccc1)c1cc(Cl)c2cccnc2c1O (stereo not drawn) [N-[(5-chloro-8-hydroxyquinolin-7-yl)(2-methylphenyl)methyl]-4-phenylbutanamide],49%
6,O=C(CCc1ccccc1)NC(c1ccccc1)c1cc(Cl)c2cccnc2c1O (stereo not drawn) [N-[(5-chloro-8-hydroxyquinolin-7-yl)(phenyl)methyl]-3-phenylpropanamide],23%
7,"O=C(COc1ccccc1)NC(c1ccc(Cl)cc1Cl)c1cc(Cl)c2cccnc2c1O (stereo not drawn) [N-[(5-chloro-8-hydroxyquinolin-7-yl)(2,4-dichlorophenyl)methyl]-2-phenoxyacetamide]",57%
8,COc1ccc(C(NC(=O)COc2ccc(Cl)c(C)c2)c2cc(Cl)c3cccnc3c2O)cc1 (stereo not drawn) [N-[(5-chloro-8-hydroxyquinolin-7-yl)(4-methoxyphenyl)methyl]-2-(4-chloro-3-methylphenoxy)acetamide],57%
9,Cc1ccc(C(NC(=O)CCCc2ccccc2)c2cc(Cl)c3cccnc3c2O)cc1 (stereo not drawn) [N-[(5-chloro-8-hydroxyquinolin-7-yl)(4-methylphenyl)methyl]-4-phenylbutanamide],41%

# Same assay, conditions: read-out: Agg2 IC50
row,Molecule,IC50
1,O=C(COc1ccccc1)NC(c1cnc2ccccc2c1)c1cc(Cl)c2cccnc2c1O (stereo not drawn) [N-[(5-chloro-8-hydroxyquinolin-7-yl)(quinolin-3-yl)methyl]-2-phenoxyacetamide],1300 nM
2,O=C(CCc1ccccc1)NC(c1ccccc1)c1cc(Cl)c2cccnc2c1O (stereo not drawn) [N-[(5-chloro-8-hydroxyquinolin-7-yl)(phenyl)methyl]-3-phenylpropanamide],> 5000 nM

# Same assay, conditions: read-out: Agg-2 FRET Median IC50
row,Molecule,IC50
1,COc1ccc(OCC(=O)NC(c2ccccc2)c2ccc3cccnc3c2O)cc1 (stereo not drawn) [N-[(8-hydroxyquinolin-7-yl)(phenyl)methyl]-2-(4-methoxyphenoxy)acetamide],3340 nM
2,"Cc1cc(NCC(=O)NC(c2ccccc2Cl)c2cc(Cl)c3cccnc3c2O)ccc1Cl (stereo not drawn) [Example 19, N^1-[(5-chloro-8-hydroxyquinolin-7-yl)(2-chlorophenyl)methyl]-N^2-(4-chloro-3-methylphenyl)glycinamide]",1480 nM
3,O=C(NC(c1ccccc1)c1ccc2cccnc2c1O)c1ccccc1 (stereo not drawn) [N-[(8-hydroxyquinolin-7-yl)(phenyl)methyl]benzamide],4700 nM and 5470 nM
4,COc1ccc(C(NC(=O)COc2ccc(C)cc2)c2ccc3cccnc3c2O)cc1 (stereo not drawn) [N-[(8-hydroxyquinolin-7-yl)(4-methoxyphenyl)methyl]-2-(4-methylphenoxy)acetamide],2830 nM
5,O=C(CCCc1ccccc1)NC(c1cccc([N+](=O)[O-])c1)c1cc(Cl)c2cccnc2c1O (stereo not drawn) [N-[(5-chloro-8-hydroxyquinolin-7-yl)(3-nitrophenyl)methyl]-4-phenylbutanamide],1150 nM
6,"Cc1ccc(C(NC(=O)CN(C)Cc2ccccc2)c2cc(Cl)c3cccnc3c2O)cc1 (stereo not drawn) [Example 59, N^2-benzyl-N^1-[(5-chloro-8-hydroxyquinolin-7-yl)(4-methylphenyl)methyl]-N^2-methylglycinamide]",1280 nM
7,"O=C(CNc1cccnc1)NC(c1cccc(F)c1)c1cc(Cl)c2cccnc2c1O (stereo not drawn) [Example 32, N^1-[(5-chloro-8-hydroxyquinolin-7-yl)(3-fluorophenyl)methyl]-N^2-pyridin-3-ylglycinamide]",15100 nM
8,N-[(8-hydroxyquinolin-7-yl)(4-methoxyphenyl)methyl]-2-(4-phenoxyphenoxy)acetamide [Example 76],3220 nM
9,"CC(=O)Nc1ccc(NCC(=O)NC(c2cccc([N+](=O)[O-])c2)c2cc(Cl)c3cccnc3c2O)cc1 (stereo not drawn) [Example 31, N^2-[4-(acetylamino)phenyl]-N^1-[(5-chloro-8-hydroxyquinolin-7-yl)(3-nitrophenyl)methyl]glycinamide]",2770 nM
10,"CN(C)c1ccc(C(NC(=O)COc2ccccc2)c2ccc3cccnc3c2O)cc1 (stereo not drawn) [Example 99, N-[[4-(dimethylamino)phenyl](8-hydroxyquinolin-7-yl)methyl]-2-phenoxyacetamide]",5540 nM
11,CC(=O)NC(c1ccccc1)c1cc(Cl)c2cccnc2c1O (stereo not drawn) [N-[(5-chloro-8-hydroxyquinolin-7-yl)(phenyl)methyl]acetamide],19700 nM
12,"O=C(CNc1cccnc1)NC(c1ccccc1Cl)c1cc(Cl)c2cccnc2c1O (stereo not drawn) [Example 18, N^1-[(5-chloro-8-hydroxyquinolin-7-yl)(2-chlorophenyl)methyl]-N^2-pyridin-3-ylglycinamide]",16900 nM
13,COc1ccc(C(NC(=O)COc2ccccc2)c2ccc3cccnc3c2O)cc1 (stereo not drawn) [N-[(8-hydroxyquinolin-7-yl)(4-methoxyphenyl)methyl]-2-phenoxyacetamide],4410 nM
14,O=C(COc1ccccc1)NC(c1ccc(Cl)cc1)c1ccc2cccnc2c1O (stereo not drawn) [N-[(4-chlorophenyl)(8-hydroxyquinolin-7-yl)methyl]-2-phenoxyacetamide],3380 nM
15,O=C(COc1ccccc1)NC(c1cc([N+](=O)[O-])ccc1Cl)c1cc(Cl)c2cccnc2c1O (stereo not drawn) [N-[(5-chloro-8-hydroxyquinolin-7-yl)(2-chloro-5-nitrophenyl)methyl]-2-phenoxyacetamide],523 nM
16,O=C(COc1ccc(Cl)cc1)NC(c1ccccc1)c1cc(Cl)c2cccnc2c1O (stereo not drawn) [N-[(5-chloro-8-hydroxyquinolin-7-yl)(phenyl)methyl]-2-(4-chlorophenoxy)acetamide],1020 nM
17,"CN(CC(=O)NC(c1cccc([N+](=O)[O-])c1)c1cc(Cl)c2cccnc2c1O)c1ccccc1 (stereo not drawn) [Example 62, N^1-[(5-chloro-8-hydroxyquinolin-7-yl)(3-nitrophenyl)methyl]-N^2-methyl-N^2-phenylglycinamide]",559 nM
18,"Cc1ccc(C(NC(=O)CNCc2ccccc2)c2cc(Cl)c3cccnc3c2O)cc1 (stereo not drawn) [Example 60, N^2-benzyl-N^1-[(5-chloro-8-hydroxyquinolin-7-yl)(4-methylphenyl)methyl]glycinamide]",1830 nM
19,O=C(NC(c1ccccc1)c1cc(Cl)c2cccnc2c1O)c1ccccc1 (stereo not drawn) [N-[(5-chloro-8-hydroxyquinolin-7-yl)(phenyl)methyl]benzamide],1310 nM
20,O=C(COc1ccccc1)NC(c1ccc(F)cc1Cl)c1cc(Cl)c2cccnc2c1O (stereo not drawn) [N-[(2-chloro-4-fluorophenyl)(5-chloro-8-hydroxyquinolin-7-yl)methyl]-2-phenoxyacetamide],1090 nM
21,O=C(COc1ccc(Oc2ccccc2)cc1)NC(c1ccccc1)c1ccc2cccnc2c1O (stereo not drawn) [N-[(8-hydroxyquinolin-7-yl)(phenyl)methyl]-2-(4-phenoxyphenoxy)acetamide],908 nM
22,COc1ccc(OCC(=O)NC(c2ccccc2)c2cc(Cl)c3cccnc3c2O)cc1 (stereo not drawn) [N-[(5-chloro-8-hydroxyquinolin-7-yl)(phenyl)methyl]-2-(4-methoxyphenoxy)acetamide],1380 nM
23,COc1cccc(C(NC(=O)COc2ccccc2)c2cc(Cl)c3cccnc3c2O)c1 (stereo not drawn) [N-[(5-chloro-8-hydroxyquinolin-7-yl)(3-methoxyphenyl)methyl]-2-phenoxyacetamide],1840 nM

# Same assay, conditions: ~600-1800 nM
row,Molecule,Agg2 % inh
1,"COc1cc(OC)cc(OCC(=O)NC(c2ccccc2)c2cc(Cl)c3cccnc3c2O)c1 (stereo not drawn) [N-[(5-chloro-8-hydroxyquinolin-7-yl)(phenyl)methyl]-2-(3,5-dimethoxyphenoxy)acetamide]",50% inh ~600-1800
